This experiment deals with P12-Ichikawa. Description: cell viability relative to DMSO control; higher = less cytotoxic. To be noted: 48 h. The method in brief: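 Viability values are per-plate percentages of DMSO wells, with background from cell-free wells. Library compounds in DMSO were pin-dosed, in an 11-point threefold series from 47 μM to 0.79 nM, onto NOMO1 or SEM (500 cells/well) or P12-Ichikawa (1000 cells/well) leukemia cells in 1536-well plates (5 μl). Those cells had been adapted for at least four passages in each medium, and CellTiter-Glo One luminescence was read after 48 h at 37°C.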

The mark [1] stands for this setting: HPLM + 10% dialyzed FBS, 0.000781 µM.
Setting [2] is: HPLM + 10% dialyzed FBS, 0.00234 µM.
Where [3] appears, read: HPLM + 10% dialyzed FBS, 0.00702 µM.
The mark [4] stands for this setting: HPLM + 10% dialyzed FBS, 0.0211 µM.
[5] abbreviates: HPLM + 10% dialyzed FBS, 0.0632 µM.
The mark [6] stands for this setting: HPLM + 10% dialyzed FBS, 0.19 µM.
Setting [7] is: HPLM + 10% dialyzed FBS, 0.569 µM.
The mark [8] stands for this setting: HPLM + 10% dialyzed FBS, 1.71 µM.
Setting [9] is: HPLM + 10% dialyzed FBS, 5.12 µM.
Where [10] appears, read: HPLM + 10% dialyzed FBS, 15.4 µM.
Setting [11] is: HPLM + 10% dialyzed FBS, 46.1 µM.
Setting [12] is: RPMI 5 mM glucose + 10% FBS, 0.000781 µM.
Where [13] appears, read: RPMI 5 mM glucose + 10% FBS, 0.00234 µM.
Setting [14] is: RPMI 5 mM glucose + 10% FBS, 0.00702 µM.
Where [15] appears, read: RPMI 5 mM glucose + 10% FBS, 0.0211 µM.
[16] abbreviates: RPMI 5 mM glucose + 10% FBS, 0.0632 µM.
The mark [17] stands for this setting: RPMI 5 mM glucose + 10% FBS, 0.19 µM.
The mark [18] stands for this setting: RPMI 5 mM glucose + 10% FBS, 0.569 µM.
Where [19] appears, read: RPMI 5 mM glucose + 10% FBS, 1.71 µM.
The mark [20] stands for this setting: RPMI 5 mM glucose + 10% FBS, 5.12 µM.
Setting [21] is: RPMI 5 mM glucose + 10% FBS, 15.4 µM.
Where [22] appears, read: RPMI 5 mM glucose + 10% FBS, 46.1 µM.
[23] abbreviates: RPMI 5 mM glucose + 10% dialyzed FBS, 0.000781 µM.
The mark [24] stands for this setting: RPMI 5 mM glucose + 10% dialyzed FBS, 0.00234 µM.
Where [25] appears, read: RPMI 5 mM glucose + 10% dialyzed FBS, 0.00702 µM.
The mark [26] stands for this setting: RPMI 5 mM glucose + 10% dialyzed FBS, 0.0211 µM.
Setting [27] is: RPMI 5 mM glucose + 10% dialyzed FBS, 0.0632 µM.
Where [28] appears, read: RPMI 5 mM glucose + 10% dialyzed FBS, 0.19 µM.
Setting [29] is: RPMI 5 mM glucose + 10% dialyzed FBS, 0.569 µM.
Where [30] appears, read: RPMI 5 mM glucose + 10% dialyzed FBS, 1.71 µM.
[31] abbreviates: RPMI 5 mM glucose + 10% dialyzed FBS, 5.12 µM.
Where [32] appears, read: RPMI 5 mM glucose + 10% dialyzed FBS, 15.4 µM.
Where [33] appears, read: RPMI 5 mM glucose + 10% dialyzed FBS, 46.1 µM.

The record followed here is the supplement of paper PMC11451515.

The cell viability is a read-out of living cells in per cent, often relative to untreated cells. `CN1\C(=C(O)/C2=C(C=C(Cl)S2)[S+]1([O-])=O)C(=O)NC3=NC=CC=C3`: the cell viability amounted to 125% under setting [1]; 123% under setting [2]; 118% under setting [3]; 107% under setting [4]; 122% under setting [5]; 119% under setting [6]. Further, the cell viability turned out to be 113% under setting [7]; 112% under setting [8]; 110% under setting [9]; 104% under setting [10]; 100% under setting [11]; 124% under setting [12]. In addition, the cell viability amounted to 125% under setting [13]; 118% under setting [14]; 116% under setting [15]; 128% under setting [16]; 114% under setting [17]; 121% under setting [18]. In addition, the cell viability was determined as 128% under setting [19]; 123% under setting [20]; 118% under setting [21]; 106% under setting [22]; 121% under setting [23]; 119% under setting [24]. Moreover, the cell viability is, setting by setting: under setting [25], 125%; under setting [26], 115%; under setting [27], 114%; under setting [28], 118%; under setting [29], 121%; under setting [30], 117%. Further, the cell viability was found to be 104% under setting [31], 98.1% under setting [32] and 96.2% under setting [33].

Consider `O=C(Nc1cccc2c(=O)cc(-c3nnn[nH]3)oc12)c1ccc(OCCCCc2ccccc2)cc1`, for which the cell viability was found to be 86.7% under setting [1]; 84.2% under setting [2]; 90.4% under setting [3]; 93.9% under setting [4]; 101% under setting [5]; 94.8% under setting [6]. Moreover, the cell viability is, setting by setting: under setting [7], 90%; under setting [8], 96%; under setting [9], 96.9%; under setting [10], 101%; under setting [11], 15.5%; under setting [12], 81%. The cell viability was found to be 84.9% under setting [13]; 99.9% under setting [14]; 91.8% under setting [15]; 95.7% under setting [16]; 89.4% under setting [17]; 88.9% under setting [18]. The cell viability is 91% under setting [19]; 87.6% under setting [20]; 80% under setting [21]; 54.6% under setting [22]; 73.1% under setting [23]; 80.4% under setting [24]. In addition, the cell viability under setting [25] was 87%; the cell viability under setting [26] was determined as 88.7%; the cell viability under setting [27] is 86.7%; the cell viability under setting [28] was found to be 92.5%; the cell viability under setting [29] was 85.1%; the cell viability under setting [30] worked out at 81.6%. Moreover, the cell viability under setting [31] was 85.5%, the cell viability under setting [32] came to 85.4% and the cell viability under setting [33] was found to be 21.7%.

Take `CCCCC(F)(F)[C@@]1(O)CC[C@H]2[C@@H](CC(=O)[C@@H]2CCCCCCC(=O)O)O1`: the cell viability stood at 128% under setting [1]; 123% under setting [2]; 120% under setting [3]; 124% under setting [4]; 122% under setting [5]; 116% under setting [6]. Besides, the cell viability was determined as 117% under setting [7]; 103% under setting [8]; 108% under setting [9]; 111% under setting [10]; 113% under setting [11].

Regarding `COC(=O)[C@@H]1CC2=CC(=O)CC[C@]2(C)[C@@]23O[C@@H]2C[C@@]2(C)[C@@H](CC[C@@]24CCC(=O)O4)[C@H]13`, the cell viability by setting is: under setting [1], 98.1%; under setting [2], 113%; under setting [3], 104%; under setting [4], 106%; under setting [5], 112%; under setting [6], 117%. Further, the cell viability reads like this: under setting [7], 117%; under setting [8], 115%; under setting [9], 120%; under setting [10], 121%; under setting [11], 112%; under setting [12], 107%. Further, the cell viability runs as follows: under setting [13], 109%; under setting [14], 112%; under setting [15], 124%; under setting [16], 123%; under setting [17], 122%; under setting [18], 123%. The cell viability came out at 127% under setting [19]; 130% under setting [20]; 135% under setting [21]; 128% under setting [22]; 100% under setting [23]; 117% under setting [24]. Further, the cell viability runs as follows: under setting [25], 115%; under setting [26], 112%; under setting [27], 112%; under setting [28], 115%; under setting [29], 118%; under setting [30], 113%. For the same molecule, the cell viability turned out to be 117% under setting [31], 119% under setting [32] and 126% under setting [33].

Consider `c1cc(N[C@@H]2CCNC2)nc(-c2cnc3ccc(-c4cn[nH]c4)cn23)c1`, for which the cell viability is, setting by setting: under setting [1], 116%; under setting [2], 121%; under setting [3], 122%; under setting [4], 123%; under setting [5], 131%; under setting [6], 130%. Further, the cell viability reads like this: under setting [7], 135%; under setting [8], 136%; under setting [9], 132%; under setting [10], 120%; under setting [11], 104%.

For the molecule `CNCCN(C)Cc1c[nH]nc1-c1ccc(O[C@H]2C[C@H](OCCC3CCOCC3)C2)cc1`, the cell viability by setting is: under setting [1], 104%; under setting [2], 120%; under setting [3], 124%; under setting [4], 119%; under setting [5], 122%; under setting [6], 122%. Besides, the cell viability runs as follows: under setting [7], 135%; under setting [8], 123%; under setting [9], 95.1%; under setting [10], 90.1%; under setting [11], 118%.
